Experimental data: US6372777B1, “Cyclic AMP-specific phosphodiesterase inhibitors” (ICOS Corporation, priority 1999, dated 2002)

Experiments:
recombinant human PDE4 = conditions: reported value; read-out: IC50 with respect to recombinant human PDE4; cited from earlier work
spontaneous mobility = assay: Locomotor activity / sedative side-effect visual scoring; assay type: in vivo, female Balb/c mice; design: key: Vehicle control animals were rated a single “+”; animals that were effectively immobilized and stretched out on the bottom of the cage with little detectable movement were rated as “++++.”; conditions: 10 mg/kg i.p., mice
Procedure: The purpose of this study was to determine the efficacy of PDE4 inhibitors in vivo in an LPS mouse model together with a determination with respect to central nervous system (CNS) side-effects manifested by a decrease in spontaneous mobility.
(§1) The test animals were female Balb/c mice, having an average weight of about 20 g. The PDE4 inhibitors, formulated in 30% Cremophor® EL, were administered via intraperitoneal (i.p.) injections at doses of 0.1, 1.0, 10.0, and 100 mg/kg. Individual dose volumes (about […]) were adjusted based on the body weights measured. One hour later, 5 mg/kg LPS in a final volume of 200 μL was injected via the tail vein to each animal. Ninety minutes following the LPS treatment, the animals were bled and serum samples were collected before being stored at −70° C. until assayed.
For side-effect profiling, a subjective visual scoring system was utilized at 5 min and 20min after administration of PDE4 inhibitors. […] In this instance, the subjects could be monitored continuously over pre-set intervals.
Movement of the X-Y plane, or rearing up on the hind legs, was quantified by counting the number of “light-beam” crosses per unit of time. […] The quantitative scoring correlated well with the subjective measurements described above.

serum TNFα = assay: Combined mouse endotoxin-stimulated TNFα release assay (serum TNFα); assay type: in vivo, female Balb/c mice; conditions: LPS mouse model
Procedure: as §1, with “The purpose of this study was to determine the efficacy of PDE4 inhibitors in vivo in an LPS mouse model together with a determination with respect to central nervous system (CNS) side-effects manifested by a decrease in spontaneous mobility. The test” for “The test”, “until assayed. For efficacy determination, the serum samples were diluted two-fold and TNFα levels were determined using the CYTOSCREEN® Immunoassay Kit (Biosource International) The data were averaged between triplicate sample subjects for each of the tested compounds.” for “until assayed.”

PDE1C = target: T1, PDE1C (Homo sapiens, UniProt Q14123); assay: PDE inhibition, PDE1C; assay type: biochemical
T1 construct: Plasmid Hcam3aBB contained the complete open reading frame of PDE1C3; made in house; host or cells: baculovirus-infected Sf9 cells

PDE1B = target: T2, PDE1B (Homo sapiens, UniProt Q01064); assay: PDE inhibition, PDE1B; assay type: biochemical
T2 construct: made in house; host or cells: Saccharomyces cerevisiae BJ2-54

PDE1A = target: T3, PDE1A (Homo sapiens, UniProt P54750); assay: PDE inhibition, PDE1A; assay type: biochemical
T3 construct: contained the complete open reading frame of PDE1A3; made in house; host or cells: baculovirus-infected Sf9 cells

PDE3A = target: T4, PDE3A (Homo sapiens, UniProt Q14432); assay: PDE inhibition, PDE3A; assay type: biochemical
T4 construct: Plasmid pBB-PDE3A contained the complete open reading frame of PDE3A; made in house; host or cells: baculovirus-infected Sf9 cells (washed 100,000 x g pellet, not purified)

PDE2 = target: T5, PDE2 (Homo sapiens, UniProt O00408); assay: PDE inhibition, PDE2; assay type: biochemical
T5 construct: made in house; host or cells: Saccharomyces cerevisiae, strain YI34

[1] = test system: human peripheral blood lymphocytes; assay: Lipopolysaccharide-stimulated TNFα release from human peripheral blood lymphocytes; assay type: cell-based; conditions: for EC50: Homo sapiens, Lymphocyte, LPS-stimulated TNFα release, read-out: PBL/TNFα EC50
Procedure: The compounds of structural formulae (I) and (II) also were tested for an ability to reduce TNFα secretion in human peripheral blood lymphocytes. The ability to reduce TNFα secretion is related to the EC50 values (i.e., the effective concentration of the compound capable of inhibiting 50% of the total TNFα). To assess the ability of a compound to reduce TNFα secretion in human peripheral blood lymphocytes (PBL), the following tests were performed. […] Heparinized blood (approximately 30 mL) drawn from human volunteers was mixed 1:1 with Dulbecco's modified phosphate-buffered saline. This mixture was mixed 1:1 with HISTOPAQUE and centrifuged at 1,500 rpm at room temperature without braking in the swinging bucket of a Beckman model TJ6 centrifuge. Erythrocytes were centrifuged to the bottom of the tubes, and serum remained at the surface of the tubes. A layer containing lymphocytes sedimented between the serum and HISTOPAQUE® layers, and was removed by aspiration to a fresh tube. The cells were quantified and adjusted to 3×10^6 cells/mL and a 100 μL aliquot is placed into the wells of a 96 well plate. Test compounds and RPMI media (Gibco/BRL Life Sciences) are added to each of the wells 15 minutes prior to addition of bacterial LPS ([…]). The mixture was allowed to incubate for 20 hours at 37° C. in a humidified chamber. The cells then were separated by centrifuging at 800 rpm for 5 minutes at room temperature. An aliquot of 80 µL of supernatant was transferred to a new plate or determination of TNFα concentration. TNFα protein in the cell supernatant fluids was measured using a commercially available enzyme-linked immunosorbent assay (ELISA) (CYTOSCREEN® Immunoassay Kit from Biosource International). The cell-based assay provided the following results for various compounds of the present invention. The EC50 values (i.e., effective concentration of the compound capable of inhibiting 50% of the total TNFα ) illustrate the ability of the present compounds to inhibit LPS-stimulated TNFα release from human PBL.

PDE5 = target: T6, PDE5 (Homo sapiens, UniProt O76074); assay: PDE inhibition, PDE5; assay type: biochemical
T6 construct: made in house; host or cells: Saccharomyces cerevisiae BJ2-54

human recombinant PDE4B = target: T7, human recombinant PDE4B (Homo sapiens, UniProt Q07343); assay: PDE inhibition, PDE4B; assay type: biochemical
T7 construct: made in house; host or cells: Saccharomyces cerevisiae, strain YI23 harboring HDUN2.32

human recombinant PDE4 = target: T8, human recombinant PDE4 (Homo sapiens, UniProt Q07343); assay: Inhibition of human recombinant PDE4 (IC50); assay type: biochemical
T8 construct: made in house; host or cells: Saccharomyces cerevisiae BJ2-54 (strain YI23 harboring HDUN2.32, if PDE4B)

PDE7 = target: T9, PDE7 (Homo sapiens, UniProt Q13946); assay: PDE inhibition, PDE7; assay type: biochemical
T9 construct: made in house; host or cells: Saccharomyces cerevisiae BJ2-54
T9 sequence (Q13946 whole entry): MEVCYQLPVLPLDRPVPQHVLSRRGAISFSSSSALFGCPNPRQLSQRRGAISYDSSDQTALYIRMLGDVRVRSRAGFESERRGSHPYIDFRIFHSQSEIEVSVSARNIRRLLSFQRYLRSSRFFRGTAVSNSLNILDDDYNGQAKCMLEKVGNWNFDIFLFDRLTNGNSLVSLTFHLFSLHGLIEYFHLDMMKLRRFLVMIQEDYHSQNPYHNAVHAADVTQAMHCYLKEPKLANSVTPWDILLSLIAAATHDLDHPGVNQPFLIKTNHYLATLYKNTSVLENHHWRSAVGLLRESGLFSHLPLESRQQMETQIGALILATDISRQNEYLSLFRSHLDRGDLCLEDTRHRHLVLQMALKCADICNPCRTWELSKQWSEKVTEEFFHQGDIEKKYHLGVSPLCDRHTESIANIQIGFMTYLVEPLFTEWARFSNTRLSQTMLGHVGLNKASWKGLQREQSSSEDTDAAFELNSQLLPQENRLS

T8 sequence (Q07343 1-564 isoform Q07343-2): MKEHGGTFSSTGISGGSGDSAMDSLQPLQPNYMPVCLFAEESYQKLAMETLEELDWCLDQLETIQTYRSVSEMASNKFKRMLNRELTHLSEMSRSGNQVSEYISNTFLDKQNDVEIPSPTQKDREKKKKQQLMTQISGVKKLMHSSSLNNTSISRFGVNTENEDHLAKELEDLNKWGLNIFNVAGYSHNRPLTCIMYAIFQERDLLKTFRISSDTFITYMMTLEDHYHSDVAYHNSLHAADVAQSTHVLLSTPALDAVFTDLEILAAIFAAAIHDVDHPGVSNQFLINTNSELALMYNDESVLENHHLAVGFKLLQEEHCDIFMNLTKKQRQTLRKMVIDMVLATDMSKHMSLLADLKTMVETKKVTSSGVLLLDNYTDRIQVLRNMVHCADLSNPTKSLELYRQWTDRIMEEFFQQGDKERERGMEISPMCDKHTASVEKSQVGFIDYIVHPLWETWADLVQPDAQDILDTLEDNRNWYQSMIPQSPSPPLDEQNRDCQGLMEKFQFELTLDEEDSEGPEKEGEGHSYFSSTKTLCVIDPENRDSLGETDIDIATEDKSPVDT
T5 sequence (O00408 whole entry): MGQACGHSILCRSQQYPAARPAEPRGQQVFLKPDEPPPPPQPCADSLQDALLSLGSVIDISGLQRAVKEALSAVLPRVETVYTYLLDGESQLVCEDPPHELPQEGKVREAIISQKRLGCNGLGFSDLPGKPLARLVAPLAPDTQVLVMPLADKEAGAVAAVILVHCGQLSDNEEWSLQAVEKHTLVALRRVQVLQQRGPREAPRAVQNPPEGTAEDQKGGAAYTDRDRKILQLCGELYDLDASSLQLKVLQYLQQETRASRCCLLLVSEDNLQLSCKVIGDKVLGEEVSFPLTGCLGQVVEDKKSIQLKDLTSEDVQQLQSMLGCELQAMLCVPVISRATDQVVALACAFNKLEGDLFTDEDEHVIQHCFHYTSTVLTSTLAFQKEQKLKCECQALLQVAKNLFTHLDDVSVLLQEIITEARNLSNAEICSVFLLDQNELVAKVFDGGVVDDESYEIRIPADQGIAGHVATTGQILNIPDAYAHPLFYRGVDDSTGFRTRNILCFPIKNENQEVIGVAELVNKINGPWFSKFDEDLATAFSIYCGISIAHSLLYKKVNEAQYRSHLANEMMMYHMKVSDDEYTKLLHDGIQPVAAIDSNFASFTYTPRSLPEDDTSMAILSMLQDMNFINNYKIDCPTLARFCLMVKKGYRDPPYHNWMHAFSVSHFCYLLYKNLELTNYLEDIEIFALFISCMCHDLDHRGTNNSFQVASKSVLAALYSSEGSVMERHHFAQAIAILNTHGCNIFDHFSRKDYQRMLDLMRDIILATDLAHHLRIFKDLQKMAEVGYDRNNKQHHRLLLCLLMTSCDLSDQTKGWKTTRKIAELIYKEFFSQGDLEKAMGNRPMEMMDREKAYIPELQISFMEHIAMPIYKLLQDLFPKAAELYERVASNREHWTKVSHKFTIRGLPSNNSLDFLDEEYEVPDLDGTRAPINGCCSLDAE
T4 sequence (Q14432 whole entry): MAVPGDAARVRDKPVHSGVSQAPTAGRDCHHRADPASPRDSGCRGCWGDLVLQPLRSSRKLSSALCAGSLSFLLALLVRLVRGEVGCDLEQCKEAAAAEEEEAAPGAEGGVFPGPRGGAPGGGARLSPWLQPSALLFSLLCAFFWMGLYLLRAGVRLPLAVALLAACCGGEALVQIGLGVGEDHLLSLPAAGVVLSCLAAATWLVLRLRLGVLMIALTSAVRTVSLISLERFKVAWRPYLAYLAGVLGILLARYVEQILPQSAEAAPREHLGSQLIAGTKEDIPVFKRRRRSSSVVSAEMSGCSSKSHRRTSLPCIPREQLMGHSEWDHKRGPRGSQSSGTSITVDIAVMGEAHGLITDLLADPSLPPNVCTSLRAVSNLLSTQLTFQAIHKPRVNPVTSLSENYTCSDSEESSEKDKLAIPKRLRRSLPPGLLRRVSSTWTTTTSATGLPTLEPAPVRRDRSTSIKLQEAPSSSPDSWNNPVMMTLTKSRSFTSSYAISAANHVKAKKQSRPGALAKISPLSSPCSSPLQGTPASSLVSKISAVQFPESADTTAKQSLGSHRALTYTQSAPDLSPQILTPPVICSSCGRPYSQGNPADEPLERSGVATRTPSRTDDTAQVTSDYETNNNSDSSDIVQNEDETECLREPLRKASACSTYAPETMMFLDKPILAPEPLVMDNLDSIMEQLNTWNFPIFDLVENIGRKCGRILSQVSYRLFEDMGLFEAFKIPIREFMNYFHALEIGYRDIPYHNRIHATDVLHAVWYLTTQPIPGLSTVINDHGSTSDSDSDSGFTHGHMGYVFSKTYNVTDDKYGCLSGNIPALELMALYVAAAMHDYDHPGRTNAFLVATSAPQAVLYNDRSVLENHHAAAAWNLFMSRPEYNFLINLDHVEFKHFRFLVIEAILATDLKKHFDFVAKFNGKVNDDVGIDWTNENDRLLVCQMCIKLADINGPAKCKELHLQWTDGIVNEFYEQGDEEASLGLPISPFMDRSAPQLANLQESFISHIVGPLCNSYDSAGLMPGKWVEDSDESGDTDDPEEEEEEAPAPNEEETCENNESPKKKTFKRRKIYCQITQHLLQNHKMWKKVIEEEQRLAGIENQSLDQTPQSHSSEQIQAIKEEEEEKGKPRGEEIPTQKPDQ
T7 sequence (Q07343 whole entry): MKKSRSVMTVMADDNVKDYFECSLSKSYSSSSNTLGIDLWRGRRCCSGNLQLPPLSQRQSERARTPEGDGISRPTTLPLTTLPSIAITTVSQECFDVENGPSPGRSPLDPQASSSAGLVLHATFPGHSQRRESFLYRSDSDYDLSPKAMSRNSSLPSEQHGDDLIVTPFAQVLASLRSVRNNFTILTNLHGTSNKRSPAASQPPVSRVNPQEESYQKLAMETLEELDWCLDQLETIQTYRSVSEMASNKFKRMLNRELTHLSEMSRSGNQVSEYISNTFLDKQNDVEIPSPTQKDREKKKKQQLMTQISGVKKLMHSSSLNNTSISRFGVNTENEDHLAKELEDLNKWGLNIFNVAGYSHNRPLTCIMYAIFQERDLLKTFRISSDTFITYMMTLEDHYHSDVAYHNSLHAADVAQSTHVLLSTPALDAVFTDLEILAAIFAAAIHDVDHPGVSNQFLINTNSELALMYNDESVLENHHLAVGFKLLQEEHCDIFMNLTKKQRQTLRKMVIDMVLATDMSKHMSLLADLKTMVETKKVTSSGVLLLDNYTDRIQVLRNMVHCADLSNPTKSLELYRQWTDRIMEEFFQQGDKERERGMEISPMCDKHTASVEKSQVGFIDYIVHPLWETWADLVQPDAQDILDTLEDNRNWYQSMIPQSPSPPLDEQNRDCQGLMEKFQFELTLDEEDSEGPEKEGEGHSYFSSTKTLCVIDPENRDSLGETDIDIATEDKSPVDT

| EC50 [1] | IC50 (human recombinant PDE4) | SMILES | IC50 (recombinant human PDE4) | % TNFα Inhibition (serum TNFα; 1 mg/kg i.p.) | % TNFα Inhibition (serum TNFα; 10 mg/kg i.p.) | % TNFα Inhibition (serum TNFα; 100 mg/kg i.p.) | other results |
| --- | --- | --- | --- | --- | --- | --- | --- |
| – | – | COC(=O)N1CC(c2ccc(OC)c(OC3CCCC3)c2)C(C)(C(C)=O)C1 (stereo not drawn) | ~0.002 µM | – | – | – | – |
| – | – | COC(=O)N1C[C@@H](c2ccc(OC)c(OC3CCCC3)c2)[C@](C)(C(C)=O)C1 (relative stereo) [Comparative Example, trans-3-(3-cyclopentoxy-4-methoxyphenyl)-1-methoxycarbonyl-4-methyl-4-(methylcarbonyl)pyrrolidine, reference compound] | – | 43% | 100% | 100% | Sedative Effect (spontaneous mobility): + |
| 0.87 µM | 0.15 µM | CCOC(=O)c1cc(-c2ccccc2)n(-c2cccc([N+](=O)[O-])c2)c1C [Example 22, 2-Methyl-1-(3-nitrophenyl)-5-phenyl-1H-pyrrole-3-carboxylic acid ethyl ester] | – | 13% | 84% | 100% | IC50 (PDE1C): 21.8 µM; IC50 (PDE1B): 21 µM; IC50 (PDE1A): 35.5 µM; IC50 (PDE3A): 89 µM; IC50 (PDE2): 4.5 µM; IC50 (PDE5): 12.5 µM; IC50 (human recombinant PDE4B): 0.15 µM; IC50 (PDE7): 10.6 µM |
| 6.72 µM | 1.29 µM | CCOC(=O)c1cc(C)n(-c2cccc(N)c2)c1-c1ccccc1 [Example 40, 1-(3-Aminophenyl)-5-methyl-2-phenyl-1H-pyrrole-3-carboxylic acid ethyl ester] | – | – | – | – | – |
| 100 µM | 1.49 µM | CCOC(=O)c1cc(C)n(-c2cccc(Cl)c2Cl)c1-c1ccccc1 [Example 42, 1-(2,3-Dichlorophenyl)-5-methyl-2-phenyl-1H-pyrrole-3-carboxylic acid ethyl ester] | – | – | – | – | – |
| – | – | COc1ccc(C2CNC(=O)C2)cc1OC1CCCC1 (stereo not drawn) [Rolipram, reference compound] | ~0.2 µM | – | – | – | LPS-induced TNFα secretion from human lymphocytes ([1]; preliminary experiments): inhibit LPS-induced TNFα secretion from human lymphocytes in a dose-dependent fashion |
